Measurements published in ChEMBL document CHEMBL1909046, “DrugMatrix in vitro pharmacology data”.

Columns and labels:
[1] = biological target: T1, Cysteinyl leukotriene receptor 1 (Homo sapiens, UniProt Q9Y271); assay type: cell membranes, CHO-K1, Membrane; settings: cho-k1; also: in other assays of this panel Not Active means under 50% inhibition at 10 µM
T1 sequence (Q9Y271 whole entry): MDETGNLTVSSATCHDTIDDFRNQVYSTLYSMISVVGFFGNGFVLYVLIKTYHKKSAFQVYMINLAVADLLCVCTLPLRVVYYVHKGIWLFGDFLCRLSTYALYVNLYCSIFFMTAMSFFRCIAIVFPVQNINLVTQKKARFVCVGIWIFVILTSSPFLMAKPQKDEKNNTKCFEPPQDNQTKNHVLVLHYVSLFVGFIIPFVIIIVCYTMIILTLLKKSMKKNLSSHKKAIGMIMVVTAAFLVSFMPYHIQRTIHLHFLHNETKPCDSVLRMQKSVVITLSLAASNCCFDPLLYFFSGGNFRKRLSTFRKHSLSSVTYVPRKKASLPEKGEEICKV

[2] = biological target: T2, Muscarinic acetylcholine receptor M5 (Homo sapiens, UniProt P08912); assay type: cell membranes, CHO-K1, Membrane; settings: cho-k1; also: in other assays of this panel Not Active means under 50% inhibition at 10 µM
T2 sequence (P08912 whole entry): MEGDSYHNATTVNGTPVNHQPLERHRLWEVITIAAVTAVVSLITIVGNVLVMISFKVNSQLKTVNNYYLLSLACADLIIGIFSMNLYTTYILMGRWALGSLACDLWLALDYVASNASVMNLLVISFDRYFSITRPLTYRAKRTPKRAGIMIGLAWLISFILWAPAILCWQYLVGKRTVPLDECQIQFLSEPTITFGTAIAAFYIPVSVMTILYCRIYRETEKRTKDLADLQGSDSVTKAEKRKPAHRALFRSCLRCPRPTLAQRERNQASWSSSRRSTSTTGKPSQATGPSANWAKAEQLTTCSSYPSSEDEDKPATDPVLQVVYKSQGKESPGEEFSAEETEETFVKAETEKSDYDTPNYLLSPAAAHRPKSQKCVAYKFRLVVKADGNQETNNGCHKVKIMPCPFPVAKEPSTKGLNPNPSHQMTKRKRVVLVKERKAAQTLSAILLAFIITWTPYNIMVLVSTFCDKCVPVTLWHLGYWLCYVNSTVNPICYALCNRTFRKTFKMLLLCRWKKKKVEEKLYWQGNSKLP

[3] = biological target: Tyrosine-protein kinase Fyn (Homo sapiens, UniProt P06241); test: biochemical; assay type: cell-based, Insect cells; settings: insect cells;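 also: enzymatic inhibition of Fyn kinase activity measured with Poly(Glu:Tyr) as the phosphorylation substrate; in other assays of this panel Not Active means under 50% inhibition at 10 µM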
[4] = biological target: Protein kinase C alpha type (Homo sapiens, UniProt P17252); assay type: cell-based; settings: sf9;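 also: inhibition of PKCalpha kinase activity measured in an enzyme assay with histone as the phosphorylation substrate; in other assays of this panel Not Active means under 50% inhibition at 10 µM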
[5] = DRUGMATRIX: GABAA, Chloride Channel, TBOB radioligand binding (ligand: [3H] TBOB); assay type: cell membranes, Rattus norvegicus, Wistar, Cerebral cortex, Membrane; settings: Not Active = under 50% inhibition at 10 µM
[6] = biological target: Kappa-type opioid receptor (Homo sapiens, UniProt P41145); test: DRUGMATRIX: Opiate kappa (OP2, KOP) radioligand binding (ligand: [3H] Diprenorphine); assay type: cell membranes, HEK293, Membrane; settings: hek293; Not Active = under 50% inhibition at 10 µM
Adenosine receptor A3 = biological target: T3, Adenosine receptor A3 (Homo sapiens, UniProt P0DMS8); assay type: cell membranes, CHO-K1, Membrane; settings: cho-k1
T3 sequence (P0DMS8 whole entry): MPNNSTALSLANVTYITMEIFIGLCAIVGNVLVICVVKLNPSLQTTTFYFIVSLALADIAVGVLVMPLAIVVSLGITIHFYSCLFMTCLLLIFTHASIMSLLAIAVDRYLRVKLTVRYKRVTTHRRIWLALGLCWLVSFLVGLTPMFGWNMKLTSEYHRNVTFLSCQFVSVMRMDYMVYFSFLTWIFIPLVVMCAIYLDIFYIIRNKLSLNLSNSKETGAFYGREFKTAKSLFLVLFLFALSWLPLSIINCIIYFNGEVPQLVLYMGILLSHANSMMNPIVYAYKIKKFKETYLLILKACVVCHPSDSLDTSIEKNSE

[7] = DRUGMATRIX: Potassium Channel [KATP] radioligand binding (ligand: [3H] Glyburide); assay type: cell membranes, Membrane; settings: hit-t15; Not Active = under 50% inhibition at 10 µM
[8] = biological target: Beta-2 adrenergic receptor (Homo sapiens, UniProt P07550); test: DRUGMATRIX: Adrenergic beta2 radioligand binding (ligand: [3H] CGP-12177); assay type: cell membranes, Membrane; settings: cho; Not Active = under 50% inhibition at 10 µM
[9] = biological target: Vascular endothelial growth factor receptor 1 (Homo sapiens, UniProt P17948); assay type: cell-based; settings: huvec; also: in other assays of this panel Not Active means under 50% inhibition at 10 µM
Leukotriene C4 synthase = biological target: T4, Leukotriene C4 synthase (Cavia porcellus, UniProt A6XA80); test: biochemical; assay type: tissue-based, Lung
T4 sequence (A6XA80 whole entry): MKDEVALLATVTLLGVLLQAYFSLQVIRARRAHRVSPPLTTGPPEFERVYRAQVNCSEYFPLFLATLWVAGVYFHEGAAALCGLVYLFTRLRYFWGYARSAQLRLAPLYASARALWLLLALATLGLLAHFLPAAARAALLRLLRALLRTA

[10] = biological target: T5, 5-hydroxytryptamine receptor 1A (Rattus norvegicus, UniProt P19327); assay type: cell membranes, CHO-K1, Membrane; settings: cho-k1; also: in other assays of this panel Not Active means under 50% inhibition at 10 µM
T5 sequence (P19327 whole entry): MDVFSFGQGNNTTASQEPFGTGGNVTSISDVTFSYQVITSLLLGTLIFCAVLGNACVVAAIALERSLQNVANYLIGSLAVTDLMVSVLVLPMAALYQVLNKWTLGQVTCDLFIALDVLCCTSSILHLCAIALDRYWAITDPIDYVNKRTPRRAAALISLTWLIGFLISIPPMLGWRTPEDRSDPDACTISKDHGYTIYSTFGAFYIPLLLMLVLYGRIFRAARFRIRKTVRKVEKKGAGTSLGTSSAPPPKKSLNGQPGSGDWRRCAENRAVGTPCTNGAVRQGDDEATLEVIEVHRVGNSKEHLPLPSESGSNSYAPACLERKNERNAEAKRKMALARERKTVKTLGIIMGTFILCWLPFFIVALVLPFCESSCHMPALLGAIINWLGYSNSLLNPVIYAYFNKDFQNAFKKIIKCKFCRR

[11] = biological target: Aldo-keto reductase family 1 member B1 (Rattus norvegicus, UniProt P07943); assay type: tissue-based, Lens of camera-type eye
Melanocortin receptor 3 = Melanocortin receptor 3 (Homo sapiens, UniProt P41968); assay type: cell membranes, Membrane; settings: hek293; also: in other assays of this panel Not Active means under 50% inhibition at 10 µM
Carbonic anhydrase 2 = Carbonic anhydrase 2 (Homo sapiens, UniProt P00918); test: DRUGMATRIX: Carbonic Anhydrase II enzyme inhibition (substrate: 4-Nitrophenyl acetate (4-NPA)); assay type: tissue-based, Erythrocyte; settings: erythrocyte; Not Active = under 50% inhibition at 10 µM
[12] = DRUGMATRIX: ATPase, Na+/K+ enzyme inhibition (substrate: ATP); assay type: tissue-based, Sus scrofa, Heart; settings: Not Active = under 50% inhibition at 10 µM
[13] = DRUGMATRIX: Phosphodiesterase PDE3 enzyme inhibition (substrate: [3H]cAMP + cAMP); assay type: tissue-based, Homo sapiens; settings: platelet; Not Active = under 50% inhibition at 10 µM

Sequence of Beta-2 adrenergic receptor (P07550 whole entry): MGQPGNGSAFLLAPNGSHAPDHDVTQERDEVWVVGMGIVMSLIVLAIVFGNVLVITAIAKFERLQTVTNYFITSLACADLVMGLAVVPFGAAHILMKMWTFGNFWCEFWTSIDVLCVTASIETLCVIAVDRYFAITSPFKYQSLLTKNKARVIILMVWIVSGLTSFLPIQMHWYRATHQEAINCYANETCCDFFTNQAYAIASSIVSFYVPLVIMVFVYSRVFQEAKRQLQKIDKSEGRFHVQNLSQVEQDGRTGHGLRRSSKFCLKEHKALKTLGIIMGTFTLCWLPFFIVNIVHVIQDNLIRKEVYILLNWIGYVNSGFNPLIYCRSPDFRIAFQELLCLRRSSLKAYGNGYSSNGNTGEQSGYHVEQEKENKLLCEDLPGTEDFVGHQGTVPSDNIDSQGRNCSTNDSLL
Sequence of Vascular endothelial growth factor receptor 1 (P17948 whole entry): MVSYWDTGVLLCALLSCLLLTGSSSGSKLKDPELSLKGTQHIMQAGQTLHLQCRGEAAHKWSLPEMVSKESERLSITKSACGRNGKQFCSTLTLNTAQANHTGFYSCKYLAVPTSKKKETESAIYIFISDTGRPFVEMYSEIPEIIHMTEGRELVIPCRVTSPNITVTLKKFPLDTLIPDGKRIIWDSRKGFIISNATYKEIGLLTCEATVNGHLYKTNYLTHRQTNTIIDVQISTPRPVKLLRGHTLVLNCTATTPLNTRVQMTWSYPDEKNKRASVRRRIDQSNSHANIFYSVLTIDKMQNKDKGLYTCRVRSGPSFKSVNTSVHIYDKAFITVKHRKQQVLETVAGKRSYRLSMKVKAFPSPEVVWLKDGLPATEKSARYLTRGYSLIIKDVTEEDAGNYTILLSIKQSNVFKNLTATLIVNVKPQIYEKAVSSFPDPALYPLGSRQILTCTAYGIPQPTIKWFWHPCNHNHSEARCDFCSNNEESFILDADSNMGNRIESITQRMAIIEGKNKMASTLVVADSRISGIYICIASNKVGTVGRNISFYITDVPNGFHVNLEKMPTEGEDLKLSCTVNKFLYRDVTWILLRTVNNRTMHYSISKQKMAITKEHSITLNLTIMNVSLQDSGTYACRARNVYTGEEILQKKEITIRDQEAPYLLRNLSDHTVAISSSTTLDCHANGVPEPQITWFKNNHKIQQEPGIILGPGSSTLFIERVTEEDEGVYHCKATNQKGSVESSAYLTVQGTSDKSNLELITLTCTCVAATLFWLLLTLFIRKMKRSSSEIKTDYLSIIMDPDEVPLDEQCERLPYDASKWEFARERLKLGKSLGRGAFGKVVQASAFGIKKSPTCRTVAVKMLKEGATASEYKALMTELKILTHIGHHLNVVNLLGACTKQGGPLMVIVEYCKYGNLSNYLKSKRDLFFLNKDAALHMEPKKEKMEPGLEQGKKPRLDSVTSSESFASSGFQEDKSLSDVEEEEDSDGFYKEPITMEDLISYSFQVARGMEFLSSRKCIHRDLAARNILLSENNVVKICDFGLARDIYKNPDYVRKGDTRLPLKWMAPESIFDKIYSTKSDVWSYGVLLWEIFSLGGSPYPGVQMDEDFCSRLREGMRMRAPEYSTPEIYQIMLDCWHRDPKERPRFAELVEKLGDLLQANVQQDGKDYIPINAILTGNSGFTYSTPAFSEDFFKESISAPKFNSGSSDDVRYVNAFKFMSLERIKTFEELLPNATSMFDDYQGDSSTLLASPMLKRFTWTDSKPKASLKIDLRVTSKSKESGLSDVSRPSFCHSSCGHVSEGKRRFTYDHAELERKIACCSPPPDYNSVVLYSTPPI
Sequence of Tyrosine-protein kinase Fyn (P06241 whole entry): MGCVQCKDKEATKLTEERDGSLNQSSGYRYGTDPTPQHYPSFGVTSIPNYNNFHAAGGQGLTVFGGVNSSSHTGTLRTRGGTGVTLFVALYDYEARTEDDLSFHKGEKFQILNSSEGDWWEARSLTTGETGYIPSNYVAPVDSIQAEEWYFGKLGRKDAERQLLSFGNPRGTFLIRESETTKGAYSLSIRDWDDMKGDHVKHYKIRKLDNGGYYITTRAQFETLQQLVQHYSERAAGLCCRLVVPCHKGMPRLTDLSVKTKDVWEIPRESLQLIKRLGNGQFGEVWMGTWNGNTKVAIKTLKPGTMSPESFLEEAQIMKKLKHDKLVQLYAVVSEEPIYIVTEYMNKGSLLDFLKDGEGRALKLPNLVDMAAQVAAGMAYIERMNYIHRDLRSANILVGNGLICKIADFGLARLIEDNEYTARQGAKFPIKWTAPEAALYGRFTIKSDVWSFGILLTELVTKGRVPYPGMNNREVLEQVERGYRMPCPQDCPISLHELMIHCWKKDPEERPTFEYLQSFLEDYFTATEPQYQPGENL
Sequence of Melanocortin receptor 3 (P41968 whole entry): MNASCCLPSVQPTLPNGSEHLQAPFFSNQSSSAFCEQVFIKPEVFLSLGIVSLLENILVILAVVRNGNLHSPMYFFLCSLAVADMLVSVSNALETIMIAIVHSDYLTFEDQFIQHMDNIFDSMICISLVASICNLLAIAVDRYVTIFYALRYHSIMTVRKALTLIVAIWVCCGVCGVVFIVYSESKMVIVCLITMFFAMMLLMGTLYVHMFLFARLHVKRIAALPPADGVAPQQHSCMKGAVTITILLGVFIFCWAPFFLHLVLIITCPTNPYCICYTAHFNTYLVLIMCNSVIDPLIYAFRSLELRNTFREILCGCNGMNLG
Sequence of Kappa-type opioid receptor (P41145 whole entry): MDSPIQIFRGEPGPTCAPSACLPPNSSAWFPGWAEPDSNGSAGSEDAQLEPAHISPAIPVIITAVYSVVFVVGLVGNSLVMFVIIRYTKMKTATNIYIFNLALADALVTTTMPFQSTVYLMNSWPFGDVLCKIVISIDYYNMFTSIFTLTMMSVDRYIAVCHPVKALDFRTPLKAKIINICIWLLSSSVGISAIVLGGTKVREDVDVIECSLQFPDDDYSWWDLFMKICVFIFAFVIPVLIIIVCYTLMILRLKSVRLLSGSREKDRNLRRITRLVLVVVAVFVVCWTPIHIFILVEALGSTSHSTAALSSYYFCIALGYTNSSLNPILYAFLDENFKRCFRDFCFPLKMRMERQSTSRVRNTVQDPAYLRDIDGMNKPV

CO[C@@H]1[C@@H](O[C@@H]2O[C@H](C)[C@@H](O[C@H]3C[C@@](C)(O)[C@@H](OC(=O)CC(C)C)[C@H](C)O3)[C@H](N(C)C)[C@H]2O)[C@@H](CC=O)C[C@@H](C)[C@@H](O)/C=C/C=C/C[C@@H](C)OC(=O)C[C@H]1O [KITASAMYCIN]
Not Active: IC50 [1] | IC50 [2] | IC50 [3] | IC50 [4] | IC50 [5] | Ki [5] | IC50 [6] | IC50 (Adenosine receptor A3) | IC50 [7] | Ki [7] | IC50 [8] | IC50 [9] | IC50 (Leukotriene C4 synthase) | IC50 [10] | IC50 [11] | IC50 (Melanocortin receptor 3) | IC50 (Carbonic anhydrase 2) | IC50 [12] | Ki [12] | IC50 [13] | Ki [13]

Nc1nnc(-c2cccc(Cl)c2Cl)c(N)n1 [LAMOTRIGINE]
Not Active: IC50 [1] | IC50 [2] | IC50 [3] | IC50 [4] | IC50 [5] | Ki [5] | IC50 [6] | IC50 (Adenosine receptor A3) | IC50 [7] | Ki [7] | IC50 [8] | IC50 [9] | IC50 (Leukotriene C4 synthase) | IC50 [10] | IC50 [11] | IC50 (Melanocortin receptor 3) | IC50 (Carbonic anhydrase 2) | IC50 [12] | Ki [12] | IC50 [13] | Ki [13]

CCC[C@@H]1C[C@@H](C(=O)N[C@@H]([C@H]2O[C@H](SC)[C@H](O)[C@@H](O)[C@H]2O)[C@@H](C)O)N(C)C1 [LINCOMYCIN]
Not Active: IC50 [1] | IC50 [2] | IC50 [3] | IC50 [4] | IC50 [5] | Ki [5] | IC50 [6] | IC50 (Adenosine receptor A3) | IC50 [7] | Ki [7] | IC50 [8] | IC50 [9] | IC50 (Leukotriene C4 synthase) | IC50 [10] | IC50 [11] | IC50 (Melanocortin receptor 3) | IC50 (Carbonic anhydrase 2) | IC50 [12] | Ki [12] | IC50 [13] | Ki [13]
